How the values were obtained:
Assay in all cases: relative viability (nuclei count vs DMSO), 5 days (fraction); higher = more cells survive
NCI-H1993 = tested on: NCI-H1993
In short: (§1)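 A single step with final 0.05% Triton X-100, 1% formaldehyde and 1 ug/ml Hoechst fixed the cells and stained nuclei 5 days after treatment. Lung cancer cell lines in 1536-well plates had been treated by pin tool the day after seeding with one drug alone or a fixed anchor-drug dose plus five library-drug doses (not always all listed) in √10 steps, and nuclei were counted on 4× images. Relative viability is the ratio of nuclei in treated wells to nuclei in vehicle wells, taken as the median of duplicate plates.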

IA-LM = tested on: IA-LM
In short: as §1

NCI-H1648 = tested on: NCI-H1648
In short: as §1

ABC-1 = tested on: ABC-1
In short: as §1

RERF-LC-KJ = tested on: RERF-LC-KJ
In short: as §1

EKVX = tested on: EKVX
In short: as §1

NCI-H2085 = tested on: NCI-H2085
In short: as §1

HCC-44 = tested on: HCC-44
In short: as §1

NCI-H2126 = tested on: NCI-H2126
In short: as §1

A549 = tested on: A549
In short: as §1

## Cc1sc2c(c1C)C(c1ccc(Cl)cc1)=N[C@@H](CC(=O)OC(C)(C)C)c1nnc(C)n1-2 [JQ1] + O=C(CCCCCCC(=O)Nc1ccccc1)NO [Vorinostat] (partner 1 µM)
NCI-H1993; first compound 0.04 µM
  relative viability: 0.851
NCI-H1993; first compound 0.1265 µM
  relative viability: 0.785
NCI-H1993; first compound 0.4 µM
  relative viability: 0.613
NCI-H1993; first compound 1.265 µM
  relative viability: 0.388
NCI-H1993; first compound 4 µM
  relative viability: 0.362
IA-LM; first compound 0.04 µM
  relative viability: 0.925
IA-LM; first compound 0.1265 µM
  relative viability: 0.888
IA-LM; first compound 0.4 µM
  relative viability: 0.197
IA-LM; first compound 1.265 µM
  relative viability: 0.0917
IA-LM; first compound 4 µM
  relative viability: 0.0701
NCI-H1648; first compound 0.04 µM
  relative viability: 0.392
NCI-H1648; first compound 0.1265 µM
  relative viability: 0.41
NCI-H1648; first compound 0.4 µM
  relative viability: 0.264
NCI-H1648; first compound 1.265 µM
  relative viability: 0.234
NCI-H1648; first compound 4 µM
  relative viability: 0.198
ABC-1; first compound 0.04 µM
  relative viability: 0.963
ABC-1; first compound 0.1265 µM
  relative viability: 0.557
ABC-1; first compound 0.4 µM
  relative viability: 0.703
ABC-1; first compound 1.265 µM
  relative viability: 0.41
ABC-1; first compound 4 µM
  relative viability: 0.296
RERF-LC-KJ; first compound 0.04 µM
  relative viability: 0.68
RERF-LC-KJ; first compound 0.1265 µM
  relative viability: 0.517
RERF-LC-KJ; first compound 0.4 µM
  relative viability: 0.44
RERF-LC-KJ; first compound 1.265 µM
  relative viability: 0.407
RERF-LC-KJ; first compound 4 µM
  relative viability: 0.223
EKVX; first compound 0.04 µM
  relative viability: 0.789
EKVX; first compound 0.4 µM
  relative viability: 0.739
EKVX; first compound 1.265 µM
  relative viability: 0.466
EKVX; first compound 4 µM
  relative viability: 0.496
NCI-H2085; first compound 0.04 µM
  relative viability: 0.769
NCI-H2085; first compound 0.1265 µM
  relative viability: 0.601
NCI-H2085; first compound 0.4 µM
  relative viability: 0.639
NCI-H2085; first compound 1.265 µM
  relative viability: 0.474
NCI-H2085; first compound 4 µM
  relative viability: 0.398
HCC-44; first compound 0.04 µM
  relative viability: 1.12
HCC-44; first compound 0.1265 µM
  relative viability: 1.03
HCC-44; first compound 0.4 µM
  relative viability: 0.965
HCC-44; first compound 1.265 µM
  relative viability: 0.788
HCC-44; first compound 4 µM
  relative viability: 0.578
NCI-H2126; first compound 0.04 µM
  relative viability: 0.725
NCI-H2126; first compound 0.1265 µM
  relative viability: 0.767
NCI-H2126; first compound 0.4 µM
  relative viability: 0.583
NCI-H2126; first compound 1.265 µM
  relative viability: 0.382
NCI-H2126; first compound 4 µM
  relative viability: 0.346

## COc1cc2nccc(Oc3ccc(NC(=O)Nc4cc(C)on4)c(Cl)c3)c2cc1OC [Tivozanib] + Nc1ncn([C@H]2C[C@H](O)[C@@H](CO)O2)c(=O)n1 [Decitabine] (partner 2 µM)
NCI-H1993; first compound 0.005 µM
  relative viability: 0.658
NCI-H1993; first compound 0.01581 µM
  relative viability: 0.595
NCI-H1993; first compound 0.05 µM
  relative viability: 0.581
NCI-H1993; first compound 0.1581 µM
  relative viability: 0.469
NCI-H1993; first compound 0.5 µM
  relative viability: 0.592
A549; first compound 0.005 µM
  relative viability: 0.207
A549; first compound 0.01581 µM
  relative viability: 0.225
A549; first compound 0.05 µM
  relative viability: 0.223
A549; first compound 0.1581 µM
  relative viability: 0.239
A549; first compound 0.5 µM
  relative viability: 0.225
NCI-H1648; first compound 0.005 µM
  relative viability: 0.467
NCI-H1648; first compound 0.01581 µM
  relative viability: 0.434
NCI-H1648; first compound 0.05 µM
  relative viability: 0.479
NCI-H1648; first compound 0.1581 µM
  relative viability: 0.451
NCI-H1648; first compound 0.5 µM
  relative viability: 0.496
ABC-1; first compound 0.005 µM
  relative viability: 0.986
ABC-1; first compound 0.01581 µM
  relative viability: 1.01
ABC-1; first compound 0.05 µM
  relative viability: 1.15
ABC-1; first compound 0.1581 µM
  relative viability: 0.868
ABC-1; first compound 0.5 µM
  relative viability: 0.694
RERF-LC-KJ; first compound 0.005 µM
  relative viability: 0.585
RERF-LC-KJ; first compound 0.01581 µM
  relative viability: 0.646
RERF-LC-KJ; first compound 0.05 µM
  relative viability: 0.657
RERF-LC-KJ; first compound 0.1581 µM
  relative viability: 0.637
RERF-LC-KJ; first compound 0.5 µM
  relative viability: 0.723
EKVX; first compound 0.005 µM
  relative viability: 0.308
EKVX; first compound 0.01581 µM
  relative viability: 0.353
EKVX; first compound 0.05 µM
  relative viability: 0.386
EKVX; first compound 0.1581 µM
  relative viability: 0.363
EKVX; first compound 0.5 µM
  relative viability: 0.313
NCI-H2085; first compound 0.005 µM
  relative viability: 0.536
NCI-H2085; first compound 0.01581 µM
  relative viability: 0.609
NCI-H2085; first compound 0.05 µM
  relative viability: 0.619
NCI-H2085; first compound 0.1581 µM
  relative viability: 0.578
NCI-H2085; first compound 0.5 µM
  relative viability: 0.562
HCC-44; first compound 0.005 µM
  relative viability: 0.92
HCC-44; first compound 0.01581 µM
  relative viability: 0.964
HCC-44; first compound 0.05 µM
  relative viability: 0.956
HCC-44; first compound 0.1581 µM
  relative viability: 0.982
HCC-44; first compound 0.5 µM
  relative viability: 0.937
NCI-H2126; first compound 0.005 µM
  relative viability: 0.645
NCI-H2126; first compound 0.01581 µM
  relative viability: 0.584
NCI-H2126; first compound 0.05 µM
  relative viability: 0.612
NCI-H2126; first compound 0.1581 µM
  relative viability: 0.602
NCI-H2126; first compound 0.5 µM
  relative viability: 0.578

## COc1cc2nccc(Oc3ccc(NC(=O)Nc4cc(C)on4)c(Cl)c3)c2cc1OC [Tivozanib] + O=C(CCCCCCC(=O)Nc1ccccc1)NO [Vorinostat] (partner 1 µM)
NCI-H1993; first compound 0.005 µM
  relative viability: 0.692
NCI-H1993; first compound 0.01581 µM
  relative viability: 0.579
NCI-H1993; first compound 0.05 µM
  relative viability: 0.965
NCI-H1993; first compound 0.1581 µM
  relative viability: 0.618
NCI-H1993; first compound 0.5 µM
  relative viability: 0.585
IA-LM; first compound 0.005 µM
  relative viability: 0.93
IA-LM; first compound 0.01581 µM
  relative viability: 0.981
IA-LM; first compound 0.05 µM
  relative viability: 0.872
IA-LM; first compound 0.5 µM
  relative viability: 0.836
NCI-H1648; first compound 0.005 µM
  relative viability: 0.453
NCI-H1648; first compound 0.01581 µM
  relative viability: 0.706
NCI-H1648; first compound 0.05 µM
  relative viability: 0.804
NCI-H1648; first compound 0.1581 µM
  relative viability: 0.796
NCI-H1648; first compound 0.5 µM
  relative viability: 0.423
ABC-1; first compound 0.005 µM
  relative viability: 0.694
ABC-1; first compound 0.01581 µM
  relative viability: 1.11
ABC-1; first compound 0.05 µM
  relative viability: 1.3
ABC-1; first compound 0.1581 µM
  relative viability: 0.926
ABC-1; first compound 0.5 µM
  relative viability: 0.842
RERF-LC-KJ; first compound 0.005 µM
  relative viability: 0.621
RERF-LC-KJ; first compound 0.01581 µM
  relative viability: 0.616
RERF-LC-KJ; first compound 0.05 µM
  relative viability: 0.734
RERF-LC-KJ; first compound 0.1581 µM
  relative viability: 0.58
RERF-LC-KJ; first compound 0.5 µM
  relative viability: 0.593
EKVX; first compound 0.005 µM
  relative viability: 0.787
EKVX; first compound 0.01581 µM
  relative viability: 0.684
EKVX; first compound 0.05 µM
  relative viability: 0.803
EKVX; first compound 0.5 µM
  relative viability: 0.765
NCI-H2085; first compound 0.005 µM
  relative viability: 0.754
NCI-H2085; first compound 0.01581 µM
  relative viability: 0.796
NCI-H2085; first compound 0.05 µM
  relative viability: 0.825
NCI-H2085; first compound 0.1581 µM
  relative viability: 0.709
NCI-H2085; first compound 0.5 µM
  relative viability: 0.786
HCC-44; first compound 0.005 µM
  relative viability: 1.03
HCC-44; first compound 0.01581 µM
  relative viability: 1.09
HCC-44; first compound 0.05 µM
  relative viability: 1.1
HCC-44; first compound 0.1581 µM
  relative viability: 1.17
HCC-44; first compound 0.5 µM
  relative viability: 1.02
NCI-H2126; first compound 0.005 µM
  relative viability: 0.795
NCI-H2126; first compound 0.01581 µM
  relative viability: 0.822
NCI-H2126; first compound 0.05 µM
  relative viability: 0.82
NCI-H2126; first compound 0.1581 µM
  relative viability: 0.482
NCI-H2126; first compound 0.5 µM
  relative viability: 0.729
